In patent US11717508B2, “Compounds, compositions, and methods for inhibiting bacterial growth” (priority 2016, dated 2023):

Tested on: DosRST regulon
Assay type: cell-based
[1] = Rv1834, WT Mtb treated with HC102A compared to DMSO
[2] = Rv1996, WT Mtb treated with HC102A compared to DMSO
[3] = Rv1997 ctpF, WT Mtb treated with HC102A compared to DMSO
[4] = Rv2003c, WT Mtb treated with HC102A compared to DMSO
[5] = Rv2004c, WT Mtb treated with HC102A compared to DMSO
[6] = Rv2005c, WT Mtb treated with HC102A compared to DMSO
[7] = Rv2006 otsB, WT Mtb treated with HC102A compared to DMSO
[8] = Rv2007c fdxA, WT Mtb treated with HC102A compared to DMSO
[9] = Rv2027c, WT Mtb treated with HC102A compared to DMSO
[10] = Rv2028c, WT Mtb treated with HC102A compared to DMSO
[11] = Rv2030c, WT Mtb treated with HC102A compared to DMSO
[12] = Rv2032, WT Mtb treated with HC102A compared to DMSO
[13] = Rv2623, WT Mtb treated with HC102A compared to DMSO
[14] = Rv2624c, WT Mtb treated with HC102A compared to DMSO

## C[C@@H]1CC(C)(C)C[C@]2(C1)NC(=O)NC2=O (racemic) [HC102A, 7,7,9-trimethyl-1,3-diazaspiro[4.5]decane-2,4-dione]
Rv1813c, WT Mtb treated with HC102A, replicate 2
  Counts per million (CPM) WT_HC102A2, gene MT1861: 147.2 CPM
[1]
  Fold change, gene MT1882: 0.4723
  log2 Fold change, gene MT1882: −1.082
Rv1834, WT Mtb treated with HC102A, replicate 1
  Counts per million (CPM) WT_HC102A1, gene MT1882: 37.79 CPM
Rv1834, WT Mtb treated with HC102A, replicate 2
  Counts per million (CPM) WT_HC102A2, gene MT1882: 31.49 CPM
[2]
  Fold change, gene MT2052: 0.01797
  log2 Fold change, gene MT2052: −5.798
Rv1996, WT Mtb treated with HC102A, replicate 1
  Counts per million (CPM) WT_HC102A1, gene MT2052: 561.6 CPM
Rv1996, WT Mtb treated with HC102A, replicate 2
  Counts per million (CPM) WT_HC102A2, gene MT2052: 277.3 CPM
[3]
  Fold change, gene MT2053: 0.04882
  log2 Fold change, gene MT2053: −4.356
Rv1997 ctpF, WT Mtb treated with HC102A, replicate 1
  Counts per million (CPM) WT_HC102A1, gene MT2053: 105.1 CPM
Rv1997 ctpF, WT Mtb treated with HC102A, replicate 2
  Counts per million (CPM) WT_HC102A2, gene MT2053: 117.4 CPM
[4]
  Fold change, gene MT2059: 0.2227
  log2 Fold change, gene MT2059: −2.167
Rv2003c, WT Mtb treated with HC102A, replicate 1
  Counts per million (CPM) WT_HC102A1, gene MT2059: 203.6 CPM
Rv2003c, WT Mtb treated with HC102A, replicate 2
  Counts per million (CPM) WT_HC102A2, gene MT2059: 97.15 CPM
[5]
  Fold change, gene MT2060: 0.2044
  log2 Fold change, gene MT2060: −2.291
Rv2004c, WT Mtb treated with HC102A, replicate 1
  Counts per million (CPM) WT_HC102A1, gene MT2060: 661.2 CPM
Rv2004c, WT Mtb treated with HC102A, replicate 2
  Counts per million (CPM) WT_HC102A2, gene MT2060: 393.9 CPM
[6]
  Fold change, gene MT2061: 0.1302
  log2 Fold change, gene MT2061: −2.942
Rv2005c, WT Mtb treated with HC102A, replicate 1
  Counts per million (CPM) WT_HC102A1, gene MT2061: 308.4 CPM
Rv2005c, WT Mtb treated with HC102A, replicate 2
  Counts per million (CPM) WT_HC102A2, gene MT2061: 262.8 CPM
[7]
  Fold change, gene MT2062: 0.2411
  log2 Fold change, gene MT2062: −2.052
Rv2006 otsB, WT Mtb treated with HC102A, replicate 1
  Counts per million (CPM) WT_HC102A1, gene MT2062: 140.8 CPM
Rv2006 otsB, WT Mtb treated with HC102A, replicate 2
  Counts per million (CPM) WT_HC102A2, gene MT2062: 181.1 CPM
[8]
  Fold change, gene MT2063: 0.2221
  log2 Fold change, gene MT2063: −2.171
Rv2007c fdxA, WT Mtb treated with HC102A, replicate 1
  Counts per million (CPM) WT_HC102A1, gene MT2063: 1,505.73 CPM
Rv2007c fdxA, WT Mtb treated with HC102A, replicate 2
  Counts per million (CPM) WT_HC102A2, gene MT2063: 2,151.57 CPM
[9]
  Fold change, gene MT2086: 0.3538
  log2 Fold change, gene MT2086: −1.499
Rv2027c, WT Mtb treated with HC102A, replicate 1
  Counts per million (CPM) WT_HC102A1, gene MT2086: 90.79 CPM
Rv2027c, WT Mtb treated with HC102A, replicate 2
  Counts per million (CPM) WT_HC102A2, gene MT2086: 84.31 CPM
[10]
  Fold change, gene MT2087: 0.08322
  log2 Fold change, gene MT2087: −3.587
Rv2028c, WT Mtb treated with HC102A, replicate 1
  Counts per million (CPM) WT_HC102A1, gene MT2087: 62.1 CPM
Rv2028c, WT Mtb treated with HC102A, replicate 2
  Counts per million (CPM) WT_HC102A2, gene MT2087: 56.17 CPM
[11]
  Fold change, gene MT2089: 0.06954
  log2 Fold change, gene MT2089: −3.846
Rv2030c, WT Mtb treated with HC102A, replicate 1
  Counts per million (CPM) WT_HC102A1, gene MT2089: 1,125.52 CPM
Rv2030c, WT Mtb treated with HC102A, replicate 2
  Counts per million (CPM) WT_HC102A2, gene MT2089: 784.7 CPM
[12]
  Fold change, gene MT2091: 0.06482
  log2 Fold change, gene MT2091: −3.947
Rv2032, WT Mtb treated with HC102A, replicate 1
  Counts per million (CPM) WT_HC102A1, gene MT2091: 270.6 CPM
Rv2032, WT Mtb treated with HC102A, replicate 2
  Counts per million (CPM) WT_HC102A2, gene MT2091: 336.8 CPM
[13]
  Fold change, gene MT2698: 0.02424
  log2 Fold change, gene MT2698: −5.366
Rv2623, WT Mtb treated with HC102A, replicate 1
  Counts per million (CPM) WT_HC102A1, gene MT2698: 903.6 CPM
Rv2623, WT Mtb treated with HC102A, replicate 2
  Counts per million (CPM) WT_HC102A2, gene MT2698: 611.4 CPM
[14]
  Fold change, gene MT2699: 0.052
  log2 Fold change, gene MT2699: −4.265
Rv2624c, WT Mtb treated with HC102A, replicate 1
  Counts per million (CPM) WT_HC102A1, gene MT2699: 106.2 CPM
Rv2624c, WT Mtb treated with HC102A, replicate 2
  Counts per million (CPM) WT_HC102A2, gene MT2699: 108.4 CPM
Rv2625c, WT Mtb treated with HC102A compared to DMSO
  Fold change, gene MT2700: 0.02819
